In patent US9050353B2, “Use of icariin and epimedium flavonoids containing icariin to treat diseases associated with myelin sheath lesion” (Xuanwu Hospital of Capital Medical University, priority 2010, dated 2015):

Assays:
Assay type in all cases: in vivo
[1] = test system: inflammatory cell infiltration in spinal cord tissues of EAE mice model; assay: Inflammatory cell infiltration in spinal cord, HE staining, EAE mice; settings: positive control drug, dose not given, scale 0-4
Description: (§1) Preparation of mice model and administration: experimental autoimmune encephalomyelitis (EAE) mice model is an important tool for studying various human demyelinating diseases of nervous system. In the present experiment, the preparation of EAE mice model was performed by immunizing female C57BL/6J mice with myelin sheath oligodendroglial cell surface glycoprotein MOG35-55. That is, the mice were subcutaneously injected at dorsal part of spinal column with 0.2 mL of MOG35-55 antigen elixir, and 0.2 ml of bordetella pertussis solution was intraperitoneally injected at the time of immunization injection and 48 h thereafter, respectively. Icariin was intragastrically administered after the last injection of bordetella pertussis solution, for consecutive 3 weeks.
Experimental objective: the pathological changes of spinal cord in EAE model, especially inflammatory cell infiltration situations was assayed by hematoxylin-eosin (HE) staining test, and the intervention effects of […] on these pathological changes were observed.
Experimental method: the mice were anesthetized with 10% chloral hydrate on the 28th day of experiment, fixed by perfusion of 4% paraformaldehyde, spinal cord tissues were taken for making paraffin sections, section thickness […]. Stained with HE, observed under microscope, and scored according to the following standard: 0 score, absence of cell infiltration; 1 score, spinal meninge cell infiltration; 2 score, 1 to 4 small ranges of cell infiltration around vessels; 3 score, 5 or more small ranges of cell infiltration around vessels, or one or more accumulatively substantial large range of cell infiltration; 4 score, a large number of cell infiltration ranges accumulatively existing in 20% or more of white matter regions.

[2] = test system: peripheral blood CD4+ and CD8+ T cells; assay: Peripheral blood T cell subgroup by flow cytometer, EAE mice; settings: positive control drug, dose not given
Description: as §1
Experimental objective: one common feature of autoimmune diseases is the […]. In this experiment, the numbers of CD4+ and CD8+ cells in peripheral blood T cell subgroup of EAE mice mode were measured by flow cytometer (FACS), and the ratio of them was obtained; and the effects of icariin on these changes were observed.
Experimental method: mice were anesthetized with pentobarbital sodium, blood sample was taken from abdominal aorta, stood at room temperature for 2 h, centrifuged at 3000 rpm for 20 min, and cells were taken, added with anti-CD4+, CD8+ T cell antibodies with different markers, then the percentages of CD4+, CD8+ cells in T lymphocytes were measured by flow cytometer, and the CD4+/CD8+ T cells ratio was calculated.

[3] = test system: myelin basic protein (MBP); assay: Spinal cord MBP by Western blot, EAE mice; settings: positive control drug, dose not given
Description: as §1
Experimental objective: myelin sheath is formed with prominences of oligodendroglial cells. CNPase, myelin basic protein (MBP) are marker proteins of mature oligodendroglial cells. The present experiment was to observe the expression of CNPase and MBP to represent the content of oligodendroglial cells in spinal cord of EAE model mice by Western blot method; and to study the effects of icariin on it.
Experimental method: the mice were anesthetized and sacrificed, fresh spinal cord was taken on ice, total protein was extracted by cleavage on ice, to prepare Western blot sample, added separately with CNPase, MBP primary antibodies and incubated, added with corresponding secondary antibodies, ECL colorated, Kodak film exposed. Pictures were analyzed with Image J software and standardized with β-actin.

IL-1β = IL-1β of spinal cord lumbar intumescentia by immunohistochemical method, EAE rats; settings: positive control drug, dose not given
Description: (§2) Preparation of rat model and administration: experimental autoimmune encephalomyelitis (EAE) model is an important tool for studying various human demyelinating diseases of nervous system. In the example, the preparation of EAE rat model was performed by multipoint immunizing female Lewis rats subcutaneously at tail root with a homogenate of spinal cord and cerebral gray matter of Guinea pig as well as complete Freund's adjuvant after emulsification. They were intragastrically administered with Epimedium flavanoids for 3 weeks.
Experimental objective: interleukin 1β (IL-1β) is an important inflammatory cytokines, and has promoting effects on inflammatory reactions. This experiment used immunohistochemical method to measure the content of IL-1β in spinal cord lumbar intumescentia of EAE model group rat, and observed the effects of Epimedium flavanoids on the content.
Experimental method: rats were anesthetized with 10% chloral hydrate, fixed by perfusion of 4% paraformaldehyde, spinal cord tissue was taken for making frozen section. Incubated with IL-1β primary antibody, added with corresponding secondary antibody, third antibody, DAB developed, observed under microscope. Pictures were analyzed by Image Pro plus 5.0 software.

TNF-α = TNF-α content of cerebral cortex by ELISA, EAE rats; settings: positive control drug, dose not given
Description: as §2
Experimental objective: tumor necrosis factor α (TNF-α) is an important inflammatory cytokines, and has promoting effects on inflammatory reactions. This experiment used enzyme linked immunosorbent assay (ELISA) to measure TNF-α content of cerebral cortex in EAE rat model, and observe the effects of Epimedium flavanoids on the content.
Experimental method: rats were anesthetized and sacrificed, fresh brain tissues were was taken, processed to form cerebral cortex homogenate. The operation was performed strictly according to the steps of specification of ELISA kit. Optical density was measured with ELISA at 450 nm. The corresponding TNF-α content was calculated with the measured OD values on standard curve.

[4] = test system: nitric-oxide synthase (NOS); assay: NOS activity of cerebral cortex, biochemical kit, EAE rats; settings: positive control drug, dose not given
Description: as §2
Experimental objective: nitric-oxide synthase (NOS) catalyzes the generation of nitric oxide (NO). During inflammatory reaction, the activity of induced NOS increases, excess NO are generated and oxygen radicals are generated via oxidation, which may result in damages in nerve cells and myelin sheath. In this experiment, NOS activity and NO content were measured using biochemical kits in cerebral cortex of EAE rat model, and the effects of Epimedium flavanoids on changes thereof were observed. […]

Malondialdehyde (MDA) = assay: MDA content of cerebral cortex, biochemical kit, EAE rats; settings: positive control drug, dose not given
Description: as §2
Experimental objective: the lipid peroxidation between oxygen free radicals and unsaturated fatty acids of cell membranes and organelle membranes results in the damage, degradation, denaturation and dysfunction of membrane phospholipids. Malondialdehyde (MDA) is a metabolic product of lipid peroxidation, and the increase of MDA indicates the enhancement of lipid peroxidation, which may lead to damage of nerve cells and myelin sheath. Superoxide dismutase (SOD) can scavenge superoxide anions and is an important antioxidase in vivo. In this experiment, SOD activity and MDA content of brain tissues in EAE rat model were measured by biochemistry method, and the effects of Epimedium flavanoids on changes thereof were observed. […]

CC(=O)OCC(=O)[C@@]1(O)CC[C@H]2[C@@H]3CCC4=CC(=O)C=C[C@]4(C)[C@H]3C(=O)C[C@@]21C [prednisone acetate]
Inflammatory cell infiltration (HE staining score) [1]: 1.05 ± 0.13
CD4 + T cells [2]: 30.45 ± 8.77%
CD4 +/CD8 + ratio [2]: 0.52 ± 0.23
CD8 + T cells [2]: 60.62 ± 5.58%
MBP/actin Integration grey level [3]: 1.05 ± 0.11
IL-1β Accumulative optical density (IL-1β): 115.5 ± 8.6 ×10^3
IL-1β Positive cell number (IL-1β): 672 ± 48
TNF-α content (TNF-α): 64.29 ± 7.52 pg/mg pro
NOS activity [4]: 2.44 ± 0.08 U/mg protein
MDA content (Malondialdehyde (MDA)): 1.03 ± 0.09 nmol/mg protein
